Experiment in all cases: NCI anticancer screen, dose series, 48 h
The subject of experiment [1] is HCT-116 colon.
The test system of experiment [2] is HOP-62 NSCLC.
The subject of experiment [3] is HS 578T breast.
For experiment [4], the system named is IGROV1 ovarian.
Experiment [5] has as its system KM12 colon.
For experiment [6], the system named is NCI-H522 lung.
Experiment [7] deals with OVCAR-5 ovarian.
Experiment [8] has as its system PC-3 prostate.
Experiment [9] concerns SF-539 CNS.
In experiment [10] the test system is SN12C renal.

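In this assay, cells in 96-well plates receive the compound at five concentrations for 48 hours. Endpoints are linearly interpolated between the surrounding concentrations. Here, GI50 denotes the concentration required for 50% inhibition of growth. TGI marks complete inhibition of growth.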

As for `O=C(CCN1CCCN(c2cnc3ccccc3n2)CC1)c1csc2ccccc12`, the GI50 was 16.5 µM in experiment [1]; 28.1 µM in experiment [2]; 20 µM in experiment [3]; 16.2 µM in [4]; 16 µM in experiment [5]; 17.3 µM in experiment [6]. In addition, the GI50 was 28.9 µM in experiment [7], 21.3 µM in experiment [8], 18.9 µM in experiment [9] and 21.9 µM in experiment [10]. Besides, the TGI was 30.1 µM in experiment [1]; 77.3 µM in [2]; 51.5 µM in experiment [3]; 31.2 µM in [4]; 29.4 µM in experiment [5]; 31.7 µM in experiment [6]. Besides, the TGI was over 100 µM in [7], 50.6 µM in experiment [8], 33.2 µM in [9] and 44.7 µM in [10].
As for `COC(=O)c1cccc(NC(=O)c2ccc(NC3=C(Cl)C(=O)N(Cc4ccccc4)C3=O)cc2)c1`, the GI50 in experiment [1] is 3.49 µM; in [2], 15.1 µM; in experiment [3] it was 22 µM; in [4], 0.176 µM; in experiment [5], 19.7 µM; in experiment [6], 7.52 µM. The GI50 in [7] is 3.63 µM; in experiment [8], 15.1 µM; in experiment [9], 14.7 µM; in [10], 4.69 µM. Also, the TGI came to 14.9 µM in experiment [1]; 35.4 µM in experiment [2]; 69.4 µM in [3]; 3.34 µM in [4]; 41.7 µM in experiment [5]; 32.8 µM in [6]. Besides, the TGI in [7] turned out to be 29.4 µM; in experiment [8] it was 28.3 µM; in experiment [9], 29.5 µM; in experiment [10] it was 23.6 µM.
Turning to `Cc1cc(-c2cc(OC(=O)c3ccccc3)ccc2Cl)cc2nnc(Nc3ccc(OCCN4CCCC4)cc3)nc12`, the GI50 in experiment [1] was 1.59 µM; in [2] it was 1.55 µM; in experiment [3] it was 1.58 µM; in [4], 1.76 µM; in experiment [5], 1.84 µM; in experiment [6], 1.37 µM. Further, the GI50 is 1.5 µM in [7], 1.16 µM in [8], 1.29 µM in experiment [9] and 1.49 µM in experiment [10]. In addition, the TGI in experiment [1] was 3.16 µM; in experiment [2], 3.27 µM; in experiment [3], 3.94 µM; in experiment [4], 3.78 µM; in [5], 3.42 µM; in experiment [6], 3.08 µM. Besides, the TGI in [7] worked out at 2.84 µM; in [8], 2.47 µM; in experiment [9] it was 2.57 µM; in experiment [10], 3.1 µM.
Regarding `C=C(Br)COc1ccc2c(C)cc(=O)oc2c1`, the TGI is over 100 µM in experiment [1]; over 100 µM in experiment [2]; over 100 µM in experiment [3]; over 100 µM in experiment [4]; 12.1 µM in experiment [5]; over 100 µM in [6]. The TGI in experiment [7], in experiment [8], in experiment [9] and in experiment [10] was over 100 µM in each case.
On to `COc1ccc(/C=C\c2cc(OC)c(OC)c(OC)c2)c(NS(=O)(=O)c2ccc(F)cc2)c1O`, for which the GI50 is 0.0428 µM in [1]; 0.61 µM in experiment [2]; 0.113 µM in [3]; 0.212 µM in experiment [4]; 0.0556 µM in experiment [5]; 0.222 µM in [6]. For the same compound, the GI50 in experiment [7] was 0.202 µM; in [8], 0.0428 µM; in experiment [9], 0.0622 µM; in experiment [10], 0.18 µM. In addition, the TGI in experiment [1] is over 100 µM; in experiment [2] it was over 100 µM; in experiment [3], over 100 µM; in experiment [4], over 100 µM; in [5], over 100 µM; in experiment [6] it was 15 µM. Moreover, the TGI was over 100 µM in experiment [7], over 70.8 µM in experiment [8], 0.192 µM in [9] and over 100 µM in [10].
`COc1cc(N2CCC(N)CC2)ccc1Nc1ncc(Cl)c(-c2c[nH]c3ccccc23)n1`: the GI50 was 0.422 µM in experiment [1]; 0.389 µM in [2]; 0.741 µM in experiment [3]; 0.405 µM in experiment [4]; 0.302 µM in experiment [5]; 0.447 µM in experiment [6]. Also, the GI50 in [7] was 0.137 µM; in [8] it was 1 µM; in experiment [9], 0.437 µM; in experiment [10], 0.869 µM. For the same compound, the TGI in experiment [1] came to 1.78 µM; in [2], 1.99 µM; in experiment [3] it was 3.87 µM; in experiment [4], 2.23 µM; in experiment [5], 1.14 µM; in [6], 1.85 µM. The TGI in [7] was determined as 2.11 µM; in experiment [8], 3.63 µM; in experiment [9] it was 1.7 µM; in [10], 3.76 µM.
Consider `Cn1c(=O)c(Oc2ccc(F)cc2F)cc2cnc(NCC(C)(C)O)nc21`, for which the GI50 in experiment [1], in [2], in experiment [3], in experiment [4], in [5] and in [6] was over 25 µM throughout. Besides, the GI50 in experiment [7], in experiment [8], in [9] and in experiment [10] was over 25 µM each time. Moreover, the TGI in [1], in experiment [2], in experiment [3], in experiment [4], in experiment [5] and in experiment [6] was over 25 µM each time. Further, the TGI in [7], in experiment [8], in experiment [9] and in experiment [10] was over 25 µM in each case.
